Measured values from patent US20100267561A1, “HERBICIDAL PYRIDAZINONE DERIVATIVES” (priority 2007, published 2010).

Legend:
Assay type in all cases: in vivo
rice (Oryza sativa) = assay: Test B flooded paddy test plant response
How it was run: (§1)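 Step one: raise plants to 2 leaves. Step two: flood pots 3 cm over the soil and apply compound into the water, keeping this depth. Step three: after 13–15 greenhouse days, score visually versus controls, 0–100, where 100 means complete control.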

[1] = tested on: barnyardgrass (Echinochloa crus-galli); assay: Test B flooded paddy test plant response
How it was run: as §1

[2] = tested on: blackgrass (Alopecurus myosuroides); assay: Test B pre-/postemergence plant response; settings: for Blackgrass plant response rating: 8 g ai/ha
How it was run: (§2)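 Seeds were sown and sprayed preemergence, while plants at 2 to 18 cm (1- to 4-leaf stage) got postemergence sprays. Compounds were formulated in a non-phytotoxic solvent mixture with surfactant. After 13 to 15 days in a greenhouse, injury was rated visually against untreated controls, 0 (no effect) to 100 (complete control).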

[3] = tested on: common ragweed (Ambrosia elation); assay: Test B pre-/postemergence plant response; settings: for Ragweed plant response rating: 8 g ai/ha
How it was run: as §2

wild oat (Avena fatua) = assay: Test B pre-/postemergence plant response; settings: for Oat, Wild plant response rating: 8 g ai/ha
How it was run: as §2

[4] = tested on: catchweed bedstraw (Galium aparine); assay: Test B pre-/postemergence plant response; settings: Preemergence
How it was run: as §2

[5] = tested on: large crabgrass (Digitaria sanguinalis); assay: Test B pre-/postemergence plant response; settings: for Crabgrass, Large plant response rating: 8 g ai/ha
How it was run: as §2

[6] = tested on: common (oilseed) sunflower (Helianthus annuus); assay: Test B pre-/postemergence plant response; settings: Preemergence
How it was run: as §2

[7] = tested on: eastern black (E.B.) nightshade (Solanum ptycanthum); assay: Test B pre-/postemergence plant response; settings: Preemergence
How it was run: as §2

[8] = tested on: downy bromegrass (Bromus tectorum); assay: Test B pre-/postemergence plant response; settings: for Bromegrass, Downy plant response rating: 8 g ai/ha
How it was run: as §2

[9] = tested on: Italian ryegrass (Lolium multiflorum); assay: Test B pre-/postemergence plant response; settings: for Ryegrass, Italian plant response rating: 8 g ai/ha
How it was run: as §2

[10] = tested on: johnsongrass (Sorghum halepense); assay: Test B pre-/postemergence plant response; settings: for Johnsongrass plant response rating: 8 g ai/ha
How it was run: as §2

[11] = tested on: morningglory (Ipomoea coccinea); assay: Test B pre-/postemergence plant response; settings: for Morningglory plant response rating: 8 g ai/ha
How it was run: as §2

[12] = tested on: pigweed (Amaranthus retroflexus); assay: Test B pre-/postemergence plant response; settings: for Pigweed plant response rating: 8 g ai/ha
How it was run: as §2

[13] = Flood (flooded paddy test), 62 g ai/ha, scale 0 to 100, 0 no effect, 100 complete control
[14] = Flood (flooded paddy test), 125 g ai/ha, scale 0 to 100, 0 no effect, 100 complete control
[15] = Flood (flooded paddy test), 250 g ai/ha, scale 0 to 100, 0 no effect, 100 complete control
[16] = Flood, 31 g ai/ha, scale 0 to 100
[17] = Postemergence, 16 g ai/ha, scale 0 to 100
[18] = Postemergence, 62 g ai/ha, scale 0 to 100
[19] = Preemergence, 31 g ai/ha, 0 to 100 scale, 0 no effect, 100 complete control
[20] = Preemergence, 62 g ai/ha, scale 0 to 100
[21] = Postemergence, 31 g ai/ha, scale 0 to 100, 0 no effect, 100 complete control
[22] = Preemergence, 16 g ai/ha, scale 0 to 100 (0 no effect, 100 complete control)
[23] = 16 g ai/ha, scale 0 to 100 (0 no effect, 100 complete control)
[24] = 31 g ai/ha, 0 to 100 scale, 0 no effect, 100 complete control

With CCc1cc(-c2ccc(Cl)c(Cl)c2)nn1-c1c(O)cnn(C)c1=O [Compound 20] the “Plant response rating, Rice” value (rice (Oryza sativa); [13]) was 0, the “Plant response rating, Rice” value (rice (Oryza sativa); [14]) was 0 and the “Plant response rating, Rice” value (rice (Oryza sativa); [15]) was 0. The “Plant response rating, Rice” value (rice (Oryza sativa); [16]) was 0, the “Plant response rating, Barnyardgrass” value [1, 13] was 0 and the “Plant response rating, Barnyardgrass” value [1, 14] was 0. For the same compound, the “Plant response rating, Barnyardgrass” value [1, 15] was 0, the “Plant response rating, Barnyardgrass” value [1, 16] was 0 and the “Blackgrass plant response rating” value ([2]; postemergence, 0-100 scale) was 30. For the same compound, the “Plant response rating, Blackgrass” value [2, 17] was 50, the “Plant response rating, Blackgrass” value [2, 18] was 60 and the “Plant response rating, Blackgrass” value [2, 19] was 90. For the same compound, the “Plant response rating, Blackgrass” value [2, 20] was 90, the “Blackgrass plant response rating” value ([2]; Preemergence, scale 0 to 100) was 10 and the “Ragweed plant response rating” value ([3]; postemergence, 0-100 scale) was 0. The “Plant response rating, Ragweed” value [3, 17] was 0, the “Plant response rating, Ragweed” value [3, 21] was 0 and the “Plant response rating, Ragweed” value [3, 18] was 0. The “Plant response rating, Ragweed” value [3, 20] was 0, the “Ragweed plant response rating” value ([3]; Preemergence, scale 0 to 100) was 0 and the “Oat, Wild plant response rating” value (wild oat (Avena fatua); postemergence, 0-100 scale) was 50. The “Plant response rating, Oat, Wild” value (wild oat (Avena fatua); [17]) was 90, the “Plant response rating, Oat, Wild” value (wild oat (Avena fatua); [21]) was 90 and the “Plant response rating, Oat, Wild” value (wild oat (Avena fatua); [18]) was 90. For the same compound, the “Plant response rating, Oat, Wild” value (wild oat (Avena fatua); [22]) was 0, the “Plant response rating, Oat, Wild” value (wild oat (Avena fatua); [19]) was 50 and the “Plant response rating, Oat, Wild” value (wild oat (Avena fatua); [20]) was 60. The “Oat, Wild plant response rating” value (wild oat (Avena fatua); Preemergence, scale 0 to 100) was 0, the “Plant response rating, Galium” value [4, 23] was 0 and the “Plant response rating, Galium” value [4, 24] was 50. For the same compound, the “Plant response rating, Galium” value ([4]; 62 g ai/ha, scale 0 to 100) was 100, the “Galium plant response rating” value ([4]; 8 g ai/ha, scale 0 to 100) was 0 and the “Crabgrass, Large plant response rating” value ([5]; postemergence, 0-100 scale) was 5. For the same compound, the “Plant response rating, Crabgrass, Large” value [5, 17] was 70, the “Plant response rating, Crabgrass, Large” value [5, 21] was 85 and the “Plant response rating, Crabgrass, Large” value [5, 18] was 90. The “Plant response rating, Crabgrass, Large” value [5, 22] was 50, the “Plant response rating, Crabgrass, Large” value [5, 19] was 50 and the “Plant response rating, Crabgrass, Large” value [5, 20] was 60. The “Crabgrass, Large plant response rating” value ([5]; Preemergence, scale 0 to 100) was 0, the “Plant response rating, Sunflower” value [6, 23] was 0 and the “Plant response rating, Sunflower” value [6, 24] was 30. For the same compound, the “Plant response rating, Sunflower” value ([6]; 62 g ai/ha, scale 0 to 100) was 40, the “Sunflower plant response rating” value ([6]; 8 g ai/ha, scale 0 to 100) was 0 and the “Plant response rating, Nightshade, E. B.” value [7, 23] was 0. The “Plant response rating, Nightshade, E. B.” value ([7]; 62 g ai/ha, scale 0 to 100) was 0, the “Nightshade, E. B. plant response rating” value ([7]; 8 g ai/ha, scale 0 to 100) was 0 and the “Bromegrass, Downy plant response rating” value ([8]; postemergence, 0-100 scale) was 0. For the same compound, the “Plant response rating, Bromegrass, Downy” value [8, 17] was 0, the “Plant response rating, Bromegrass, Downy” value [8, 21] was 40 and the “Plant response rating, Bromegrass, Downy” value [8, 18] was 50. The “Plant response rating, Bromegrass, Downy” value [8, 22] was 0, the “Plant response rating, Bromegrass, Downy” value [8, 19] was 0 and the “Plant response rating, Bromegrass, Downy” value [8, 20] was 0. The “Bromegrass, Downy plant response rating” value ([8]; Preemergence, scale 0 to 100) was 0, the “Ryegrass, Italian plant response rating” value ([9]; postemergence, 0-100 scale) was 40 and the “Plant response rating, Ryegrass, Italian” value [9, 17] was 55. For the same compound, the “Plant response rating, Ryegrass, Italian” value [9, 21] was 90, the “Plant response rating, Ryegrass, Italian” value [9, 18] was 90 and the “Plant response rating, Ryegrass, Italian” value [9, 22] was 35. The “Plant response rating, Ryegrass, Italian” value [9, 19] was 40, the “Plant response rating, Ryegrass, Italian” value [9, 20] was 90 and the “Ryegrass, Italian plant response rating” value ([9]; Preemergence, scale 0 to 100) was 30. For the same compound, the “Johnsongrass plant response rating” value ([10]; postemergence, 0-100 scale) was 30, the “Plant response rating, Johnsongrass” value [10, 17] was 75 and the “Plant response rating, Johnsongrass” value [10, 21] was 100. For the same compound, the “Plant response rating, Johnsongrass” value [10, 18] was 100, the “Plant response rating, Johnsongrass” value [10, 22] was 50 and the “Plant response rating, Johnsongrass” value [10, 19] was 75. The “Plant response rating, Johnsongrass” value [10, 20] was 95, the “Johnsongrass plant response rating” value ([10]; Preemergence, scale 0 to 100) was 0 and the “Morningglory plant response rating” value ([11]; postemergence, 0-100 scale) was 0. The “Plant response rating, Morningglory” value [11, 17] was 0, the “Plant response rating, Morningglory” value [11, 21] was 0 and the “Plant response rating, Morningglory” value [11, 18] was 0. For the same compound, the “Plant response rating, Morningglory” value [11, 22] was 0, the “Plant response rating, Morningglory” value [11, 19] was 0 and the “Plant response rating, Morningglory” value [11, 20] was 0. The “Morningglory plant response rating” value ([11]; Preemergence, scale 0 to 100) was 0, the “Pigweed plant response rating” value ([12]; postemergence, 0-100 scale) was 0 and the “Plant response rating, Pigweed” value [12, 17] was 0. The “Plant response rating, Pigweed” value [12, 21] was 0, the “Plant response rating, Pigweed” value [12, 18] was 0 and the “Plant response rating, Pigweed” value [12, 22] was 0. For the same compound, the “Plant response rating, Pigweed” value [12, 19] was 0, the “Plant response rating, Pigweed” value [12, 20] was 0 and the “Pigweed plant response rating” value ([12]; Preemergence, scale 0 to 100) was 0.
